Read-outs that look alike come from different tables or passages of the source.
Tests used:
full-length human RORγt = full-length human RORγt (Homo sapiens (Human), UniProt P51449); assay: RORγt (full-length human) reporter assay, Conditions B or C; assay type: cell-based; conditions: for RORγt (FL) Reporter Assay B or C, % inhibition (value marked *): marked *: footnote not given; for IC50: read-out: RORγt (FL) Reporter Assay B or C, IC50; for inhibition at 3 µM: at 3 μM compound concentration, read-out: RORγt (FL) Reporter Assay B or C, % inhibition
Chain of full-length human RORγt (P51449 other isoform, or with tags, fused parts or gaps): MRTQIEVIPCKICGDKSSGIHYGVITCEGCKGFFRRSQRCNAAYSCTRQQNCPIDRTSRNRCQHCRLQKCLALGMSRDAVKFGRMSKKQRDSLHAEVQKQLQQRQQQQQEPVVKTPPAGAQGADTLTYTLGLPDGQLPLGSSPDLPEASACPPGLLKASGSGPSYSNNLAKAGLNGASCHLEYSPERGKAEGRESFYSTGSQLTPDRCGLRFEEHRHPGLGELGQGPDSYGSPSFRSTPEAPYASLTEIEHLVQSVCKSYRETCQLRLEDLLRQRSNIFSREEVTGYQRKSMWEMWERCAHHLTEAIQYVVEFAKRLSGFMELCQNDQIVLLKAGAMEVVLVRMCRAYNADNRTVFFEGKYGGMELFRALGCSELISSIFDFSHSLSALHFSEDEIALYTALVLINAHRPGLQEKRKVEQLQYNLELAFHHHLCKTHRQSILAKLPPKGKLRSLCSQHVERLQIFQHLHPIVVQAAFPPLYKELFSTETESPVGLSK
Description: RORγt (Full-Length Human) Reporter Assay:
Cells used in this assay were transiently co-transfected with three different plasmids, one expressing the GAL4-DNA binding domain (DBD)-RORγt fusion protein under control of a CMV promoter (NH2-Gal4-DBD:RORC-COOH in pCMV-BD, Stratagene #211342), and two reporter plasmids—the firefly luciferase reporter under control of a GAL4 promoter (pFR-Luc 2×GAL4) and Renilla luciferase reporter under control of CMV promoter (pRL-CMV, Promega # E2261). The full-length coding sequence was used for human RORγt, i.e., nucleotides 142-1635 of human RORγt, transcript variant 2, NCBI Accession: NM_001001523.1 (SEQ ID NO:1). HEK293T cells were plated at 35,000 per well in 96-well plate in medium of DMEM with 10% FBS. After 18-22 hours incubation, the transfection was carried out by using a PEI solution with 170.5 ng total DNA/well (50 ng pCMV-BD-ROR plus 20 ng of pFR-Luc reporter and 0.5 ng of pRL-CMV reporter plus 100 ng Carrier DNA (Clontech #630440) for each well). 4-6 hours after transfection, cells were treated with compounds for overnight in the medium with final concentration of FBS 1.3% and DMSO 0.1%. After overnight (16 to 20 hours) incubation, media were removed and cells were lysed with 50 μL Glo Lysis Buffer (Promega) for 10-15 minutes followed by 10 minute incubation with 50 μL Dual Glo reagent (Promega) at room temperature. Firefly luciferase luminescence was measured using a BMG Pherastar plate reader. To each well, 50 μL Stop and Glo reagent was added and incubated for 10 minutes at room temperature. Renilla luminescence was measured using a BMG Pherastar plate reader. To calculate the effect of compounds on RORγt activity, firefly values were normalized against values of DMSO only and values of reference compound at saturating concentration, then further normalized against Renilla signals. IC50s were generated by plotting final Renilla normalized data against compound concentration and percent inhibition was calculated against DMSO control.
Cells used in this assay were transiently co-transfected with three different plasmids, one expressing the GAL4-DNA binding domain (DBD)-RORγt fusion protein under control of a CMV promoter (NH2-Gal4-DBD:RORC-COOH in pCMV-BD, Stratagene #211342), and two reporter plasmids—the firefly luciferase reporter under control of a GAL4 promoter (pFR-Luc 2×GAL4) and Renilla luciferase reporter under control of CMV promoter (pRL-CMV, Promega # E2261). The full-length coding sequence was used for human RORγt, i.e., nucleotides 142-1635 of human RORγt, transcript variant 2, NCBI Accession: NM_001001523.1 (SEQ ID NO:1). HEK293T cells were plated at 8750 cells per well in 384-well plate in medium of DMEM with 10% FBS. After 18-22 hours incubation, the transfection was carried out by using a PEI solution with 42.6 ng total DNA/well (12.5 ng pCMV-BD-ROR plus 5 ng of pFR-Luc reporter and 0.125 ng of pRL-CMV reporter plus 25 ng Carrier DNA (Clontech #630440) for each well). 4-6 hours after transfection, cells were treated with compounds for overnight in the medium with final concentration of FBS 1.3% and DMSO 0.1%. After overnight (16 to 20 hours) incubation, media were removed and cells were lysed with 20 μL Glo Lysis Buffer (Promega) for 10-15 minutes followed by 10 minute incubation with 20 μL Dual Glo reagent (Promega) at room temperature. Firefly luciferase luminescence was measured using a BMG Pherastar plate reader. To each well, 20 μL Stop and Glo reagent was added and incubated for 10 minutes at room temperature. Renilla luminescence was measured using a BMG Pherastar plate reader. To calculate the effect of compounds on RORγt activity, firefly values were normalized against values of DMSO only and values of reference compound at saturating concentration, then further normalized against Renilla signals.

[1] = target: human RORγt ligand binding domain (RORγt LBD) (Homo sapiens (Human), UniProt P51449); assay: RORγt ThermoFluor® assay (thermal shift binding); conditions: read-out: ThermoFluor® Assay, Kd
Chain of human RORγt ligand binding domain (RORγt LBD) (P51449 other isoform, or with tags, fused parts or gaps): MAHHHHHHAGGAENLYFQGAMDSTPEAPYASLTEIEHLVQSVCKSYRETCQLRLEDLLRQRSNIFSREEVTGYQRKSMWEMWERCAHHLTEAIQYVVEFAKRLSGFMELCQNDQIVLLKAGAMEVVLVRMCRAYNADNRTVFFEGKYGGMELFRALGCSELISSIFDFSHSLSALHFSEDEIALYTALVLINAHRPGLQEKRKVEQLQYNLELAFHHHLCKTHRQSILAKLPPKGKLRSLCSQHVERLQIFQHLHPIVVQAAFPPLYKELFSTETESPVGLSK
Description: ThermoFluor® is a fluorescence based assay that estimates ligand binding affinities by measuring the effect of a ligand on protein thermal stability (Pantoliano, M. W., Petrella, E. C., Kwasnoski, J. D., Lobanov, V. S., Myslik, J., Graf, E., Carver, T., Asel, E., Springer, B. A., Lane, P., and Salemme, F. R. (2001) High-density miniaturized thermal shift assays as a general strategy for drug discovery. J Biomol Screen 6, 429-40, and Matulis, D., Kranz, J. K., Salemme, F. R., and Todd, M. J. (2005) Thermodynamic stability of carbonic anhydrase: measurements of binding affinity and stoichiometry using ThermoFluor. Biochemistry 44, 5258-66). This approach is applicable to a wide variety of systems, and rigorous in theoretical interpretation through quantitation of equilibrium binding constants (KD).
The shift in the melting point described as a ΔTm is proportional to the concentration and affinity of the ligand. The compound potency may be compared as a rank order of either ΔTm values at a single compound concentration or in terms of KD values, estimated from concentration response curves.
RORγt ThermoFluor® Assay Construct
For the RORγt construct used in the ThermoFluor® assay, numbering for the nucleotide sequences was based on the reference sequence for human RORγt, transcript variant 2, NCBI Accession: NM_001001523.1 (SEQ ID NO:1). Nucleotides 850-1635 (SEQ ID NO:2) coding for the wild type human RORγt ligand binding domain (RORγt LBD) were cloned into the pHIS1 vector, a modified pET E. coli expression vector (Accelagen, San Diego), containing an in-frame N-terminal His-tag and a TurboTEV protease cleavage site (ENLYFQG, SEQ ID NO:3) upstream of the cloned insert sequence. The amino acid sequence for the RORγt construct used in the Thermofluor® assay is shown as SEQ ID NO:4.
ThermoFluor® experiments were carried out using instruments owned by Janssen Research and Discovery, L.L.C. through its acquisition of 3-Dimensional Pharmaceuticals, Inc. 1,8-ANS (Invitrogen) was used as a fluorescent dye. Protein and compound solutions are dispensed into black 384-well polypropylene PCR microplates (Abgene) and overlayed with silicone oil (1 μL, Fluka, type DC 200) to prevent evaporation.
Bar-coded assay plates are robotically loaded onto a thermostatically controlled PCR-type thermal block and then heated at a typical ramp-rate of 1° C./min for all experiments. Fluorescence was measured by continuous illumination with UV light (Hamamatsu LC6) supplied via fiber optic and filtered through a band-pass filter (380-400 nm; >6 OD cutoff). Fluorescence emission of the entire 384-well plate was detected by measuring light intensity using a CCD camera (Sensys, Roper Scientific) filtered to detect 500±25 nm, resulting in simultaneous and independent readings of all 384 wells. Images were collected at each temperature, and the sum of the pixel intensity in a given area of the assay plate was recorded versus temperature. Reference wells contained RORγt without compounds, and the assay conditions were as follows: • 0.065 mg/mL RORγt • 60 μM 1,8-ANS • 100 mM Hepes, pH 7.0 • 10 mM NaCl • 2.5 mM GSH • 0.002% Tween-20
Project compounds were arranged in a pre-dosed mother plate (Greiner Bio-one) wherein compounds are serially diluted in 100% DMSO by 1:2 from a high concentration of 10 mM over 12 columns within a series (column 12 is a reference well containing DMSO, no compound). The compounds were robotically dispensed directly into assay plates (×=46 nL) using a Hummingbird capillary liquid handling instrument (Digilab). Following compound dispense, protein and dye in buffer was added to achieve the final assay volume of 3 μL, followed by 1 μL of silicone oil.

| Structure (SMILES) | RORγt (FL) Reporter Assay B or C, % inhibition (value marked *) (full-length human RORγt; Conditions B or C) | IC50 (full-length human RORγt; Conditions B or C) | Kd [1] | inhibition at 3 µM (full-length human RORγt) | IC50 (full-length human RORγt) |
| --- | --- | --- | --- | --- | --- |
| CC[C@H](Nc1cc(C(F)F)c(-c2sc(C(=O)N[C@H]3C[C@H](O)C3)nc2C(=O)N2CCC[C@@H]2C)cn1)C(F)(F)F [Example 233, 5-[4-(Difluoromethyl)-6-[[(1S)-1-(trifluoromethyl)propyl]amino]-3-pyridyl]-N-((1r,3S)-3-hydroxycyclobutyl)-4-[(2S)-2-methylpyrrolidine-1-carbonyl]thiazole-2-carboxamide] | 124* % | 22 nM | 10 nM |  |  |
| C[C@H]1CC(F)(F)CN1C(=O)c1nc(C(=O)NCC(C)(C)O)sc1-c1cnc(NC2(C(F)(F)F)CCC2)cc1C(F)(F)F [Example 100, (S)-4-(4,4-Difluoro-2-methylpyrrolidine-1-carbonyl)-N-(2-hydroxy-2-methylpropyl)-5-(4-(trifluoromethyl)-6-((1-(trifluoromethyl)cyclobutyl)amino)pyridin-3-yl)thiazole-2-carboxamide] | 108* % | 14 nM | 0.39 nM |  |  |
| C[C@H](Nc1cc(C(F)F)c(-c2sc(C(=O)N[C@@H]3C[C@H]3O)nc2C(=O)N2CCC[C@@H]2C)cn1)C(F)(F)F (single isomer, unassigned) [Example 157, 5-(4-(Difluoromethyl)-6-(((S)-1,1,1-trifluoropropan-2-yl)amino)pyridin-3-yl)-N-((1R*,2R*)-2-hydroxycyclopropyl)-4-((S)-2-methylpyrrolidine-1-carbonyl)thiazole-2-carboxamide] | 89* % | 190 nM | 32 nM |  |  |
| CC1(Nc2cc(C(F)F)c(-c3sc(C(=O)NC4CCS(=O)(=O)CC4)nc3C(=O)N3C4CCC3CC4)cn2)CCC1 [Example 331, 4-((1s,4s)-7-Azabicyclo[2.2.1]heptane-7-carbonyl)-5-(4-(difluoromethyl)-6-((1-methylcyclobutyl)amino)pyridin-3-yl)-N-(1,1-dioxidotetrahydro-2H-thiopyran-4-yl)thiazole-2-carboxamide] |  |  | 1.5 nM | 81% | 23 nM |
| CC(Nc1cc(C(F)(F)F)c(-c2sc(C(=O)NCC(C)(C)O)nc2C(=O)N2CC(F)(F)C[C@@H]2C)cn1)C1CCC1 (stereo partly drawn) [Example 161, 5-(6-((1-Cyclobutylethyl)amino)-4-(trifluoromethyl)pyridine-3-yl)-4-((S)-4,4-difluoro-2-methylpyrrolidine-1-carbonyl)-N-(2-hydroxy-2-methylpropyl)thiazole-2-carboxamide] | 106* % | 20 nM | 0.78 nM |  |  |
| C[C@H]1CCCN1C(=O)c1nc(C(=O)NCC(C)(C)O)sc1-c1cnc(NC(C)(C)C2CC2)cc1C(F)F [Example 105, (S)-5-(6-((2-Cyclopropylpropan-2-yl)amino)-4-(difluoromethyl)pyridin-3-yl)-N-(2-hydroxy-2-methylpropyl)-4-(2-methylpyrrolidine-1-carbonyl)thiazole-2-carboxamide] | 116* % | 15 nM | 2 nM |  |  |
| CCC(C)(C)Nc1cc(C(F)(F)F)c(-c2sc(C(=O)NCC(C)(C)O)nc2C(=O)N2CCCC[C@@H]2C)cn1 [Example 108, (S)—N-(2-Hydroxy-2-methylpropyl)-4-(2-methylpiperidine-1-carbonyl)-5-(6-(tert-pentylamino)-4-(trifluoromethyl)pyridin-3-yl)thiazole-2-carboxamide] | 104* % | 47 nM | 0.07 nM |  |  |
| C[C@H]1CCCCN1C(=O)c1nc(C(=O)NCC(C)(C)O)sc1-c1cnc(NCC(C)(C)C)cc1C(F)F [Example 114, (S)-5-(4-(Difluoromethyl)-6-(neopentylamino)pyridin-3-yl)-N-(2-hydroxy-2-methylpropyl)-4-(2-methylpiperidine-1-carbonyl)thiazole-2-carboxamide] | 117* % | 9.7 nM | 0.49 nM |  |  |
| CC(C)(C)Nc1cc(C(F)F)c(-c2sc(C(=O)NC3CCS(=O)(=O)CC3)nc2C(=O)N2C3CCC2CC3)cn1 [Example 433, 4-((1s,4s)-7-Azabicyclo[2.2.1]heptane-7-carbonyl)-5-[6-(tert-butylamino)-4-(difluoromethyl)-3-pyridyl]-N-(1,1-dioxothian-4-yl)thiazole-2-carboxamide] |  |  | 1.2 nM | 128% | 25 nM |
